Assay results published in ChEMBL document CHEMBL1201862, “PubChem BioAssay data set” (2004).
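Growth conditions: 96-well plates. Treatment: test compound, 48 hours, 5 concentrations. Analysis: linear interpolation between bracketing concentrations; unreached endpoints set to highest concentration. GI50: concentration for 50% inhibition of growth.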 Activity calls are given as the source filed them. No stated cut-off is given here; in the data, active = GI50 up to about 1.1 µM and inactive = higher.

How the values were obtained:
Test in all cases: DTP human tumour cell line panel, 48 h
[1] = test system: CAKI-1
[2] = test system: CCRF-CEM
[3] = test system: HCC 2998
[4] = test system: HL-60
[5] = test system: KM12
[6] = test system: M14
[7] = test system: Malme-3M
[8] = test system: NCI-H522
[9] = test system: OVCAR-8
[10] = test system: SK-MEL-2
[11] = test system: SNB-78
[12] = test system: SW-620
[13] = test system: TK-10
[14] = test system: U-251
[15] = test system: UACC-257
[16] = test system: UACC-62
[17] = test system: HCT-116
[18] = test system: DU-145
[19] = test system: MDA-MB-231
[20] = test system: PC-3

Measured: GI50

N#CC(c1ccc(Cl)cc1)c1cccc(Cl)n1 (stereo not given)
inactive: [1] 25.3 µM | [2] > 100 µM | [3] 61 µM | [4] 47.1 µM | [5] 78.3 µM | [6] 79.8 µM | [7] 74.5 µM | [8] 22.4 µM | [9] > 100 µM | [10] 54.8 µM | [11] 67.3 µM | [12] > 100 µM | [13] 33.2 µM | [14] 97.9 µM | [15] 60.7 µM | [16] 42.6 µM

CCCOCN1COCN/C1=N\C#N
inactive: [1] > 100 µM | [3] > 100 µM | [17] 84.1 µM | [4] > 100 µM | [5] > 100 µM | [6] > 100 µM | [7] > 100 µM | [8] > 100 µM | [9] > 100 µM | [10] > 100 µM | [11] > 100 µM | [12] 14 µM | [13] > 100 µM | [14] 21.6 µM | [15] > 100 µM | [16] > 100 µM

O=C(/C=C/c1ccc(OCC(=O)N2CCN(c3ccccc3)CC2)cc1)c1ccc(Cl)cc1
inactive: [1] 78.5 µM | [2] > 100 µM | [18] 51.2 µM | [3] > 100 µM | [17] 54.5 µM | [4] 98.2 µM | [5] > 100 µM | [6] 84.7 µM | [19] 25.5 µM | [7] 57.3 µM | [8] 49.3 µM | [9] 45.9 µM | [20] > 91.8 µM | [10] 36.5 µM | [11] 18.6 µM | [12] > 100 µM | [13] 31.6 µM | [14] 15.7 µM | [15] > 72.4 µM | [16] 61.8 µM

COc1ccc([C@@H]2OC(=O)C3C2C(=O)O[C@H]3c2ccc(OC)cc2)cc1 (stereo not given in full)
inactive: [1] > 100 µM | [2] > 100 µM | [3] > 100 µM | [17] > 100 µM | [4] > 100 µM | [5] > 100 µM | [9] > 100 µM | [10] > 100 µM | [11] > 100 µM | [12] > 100 µM | [14] > 100 µM | [15] > 100 µM | [16] > 100 µM

COc1cc(NS(C)(=O)=O)ccc1Nc1c2ccccc2nc2c1[nH]c1ccc(NC3OC(CO)C(O)C(O)C3O)cc12 (stereo not given)
inactive: [11] 1.27 µM
active: [1] < 0.01 µM | [2] < 0.0132 µM | [18] 0.0281 µM | [3] 0.169 µM | [17] 0.0472 µM | [4] 0.0153 µM | [5] 0.207 µM | [6] 0.0399 µM | [19] 0.546 µM | [7] 0.0468 µM | [8] 0.0923 µM | [9] 0.0504 µM | [20] 0.0908 µM | [10] 0.269 µM | [12] < 0.0348 µM | [13] 0.197 µM | [14] < 0.0201 µM | [15] 0.74 µM | [16] 0.0213 µM

Cc1cc(=O)n(-c2ccccc2)c(=O)o1
inactive: [1] > 100 µM | [2] > 100 µM | [3] > 100 µM | [17] > 100 µM | [4] > 100 µM | [5] > 100 µM | [6] > 100 µM | [7] > 100 µM | [8] 62.7 µM | [10] > 100 µM | [11] > 100 µM | [12] > 100 µM | [13] > 100 µM | [14] > 100 µM | [15] > 100 µM | [16] > 100 µM

COC(=O)C1=C(C(=O)OC)C2C(C)=CC(C)=CN2C(C#N)=C(SC)S1 (stereo not given)
inactive: [1] 20.3 µM | [2] 17.4 µM | [3] 37.2 µM | [17] 15 µM | [4] 19.5 µM | [6] 18 µM | [7] 24.7 µM | [8] 16.1 µM | [9] 22.4 µM | [10] 23.1 µM | [11] 41.3 µM | [12] 19.9 µM | [13] 35.2 µM | [14] 31 µM | [15] 24.3 µM | [16] > 10 µM

N#CC1(C=O)c2ccccc2C=CN1C(=O)c1ccccc1 (stereo not given)
inactive: [1] 20.5 µM | [2] 17.6 µM | [3] 35.8 µM | [17] 38.6 µM | [4] 17.7 µM | [5] 19.2 µM | [6] 26.8 µM | [7] 30.6 µM | [8] 27.9 µM | [9] 41.8 µM | [10] 61.8 µM | [11] 78.7 µM | [12] 4.3 µM | [13] 63.5 µM | [14] 29.6 µM | [15] 29.8 µM | [16] 52.5 µM

COC(=O)C(=O)C(C(=O)C(=O)Nc1ccc(C)cc1C)c1nc2ccccc2nc1O (stereo not given)
inactive: [1] 21.3 µM | [2] 4.99 µM | [3] 67.3 µM | [17] 63 µM | [4] 41.8 µM | [5] 64.3 µM | [6] 54.8 µM | [7] 57.4 µM | [8] 25 µM | [9] 37.7 µM | [10] 54.3 µM | [11] 41.6 µM | [12] > 100 µM | [13] 22.1 µM | [14] 57.1 µM | [15] 58.7 µM | [16] 37.1 µM

CC(=O)Nc1c(Nc2ccccc2)[nH]c(C)nc1=S
inactive: [1] > 100 µM | [2] > 100 µM | [3] > 100 µM | [4] > 100 µM | [5] > 100 µM | [6] > 100 µM | [7] > 100 µM | [8] > 100 µM | [9] > 100 µM | [10] > 100 µM | [11] > 100 µM | [12] > 100 µM | [13] > 100 µM | [15] > 100 µM | [16] > 100 µM

CC(C)OC(=O)C1Cc2c([nH]c3ccccc23)C(c2ccccc2)N1 (stereo not given)
inactive: [1] > 100 µM | [2] 79.4 µM | [3] 30.5 µM | [17] 62.4 µM | [4] 33 µM | [5] 97.1 µM | [6] 81.7 µM | [7] 25.7 µM | [8] 29.2 µM | [9] > 100 µM | [10] 18.2 µM | [11] > 100 µM | [12] > 100 µM | [13] > 100 µM | [14] > 100 µM | [15] 68.5 µM | [16] > 100 µM

C[N+](C)(C)CC(=O)N/N=C(\CCC(=O)NCCc1ccccc1)CC(=O)c1ccccc1
inactive: [1] > 100 µM | [2] > 100 µM | [3] > 100 µM | [17] > 100 µM | [4] > 100 µM | [5] > 100 µM | [6] > 100 µM | [7] > 100 µM | [8] > 100 µM | [9] > 100 µM | [10] > 100 µM | [11] > 100 µM | [12] > 100 µM | [13] > 100 µM | [14] > 100 µM | [15] > 100 µM | [16] > 100 µM
